Results: patent US20260001928A1 (CORTERIA PHARMACEUTICALS, priority 2022, published 2026)
*1 amine or outer side, *2 acyl side, *3 side chain or, on linkers, in order; H or OH if unused. Where a SMILES comes first, the peptide text is derived from it. Side-chain parts run from the residue outwards. [ ]: non-standard residue; d: D form. The star is where a group is joined. C18 diacid = O=C(O)CCCCCCCCCCCCCCCCC(=O)*; C16 diacid = O=C(O)CCCCCCCCCCCCCCC(=O)*; γGlu = O=C(O)[C@H](CCC(=O)[*:2])N[*:1]; NMeI = CC[C@H](C)[C@H](NC)C(=O)O; Abu = CC[C@H](N)C(=O)O; Pentanoyl = CCCCC(=O)*; Aib = CC(C)(N)C(=O)O

How the values were obtained:
[1] = In vitro plasma stability, minipig plasma; format: in vitro ADME; design: remaining at 2 h: dose or concentration left out as unconfirmed; details: pig, plasma; Minipig PLM, 37° C.
[2] = Chemical stability in buffer (pH 7.4 / pH 4.5), % purity loss; format: physicochemical; details: 40° C. vs 5° C., 14 or 28 days; for Buffer stability pH 7.4 % purity loss: 100 mM phosphate buffer pH 7.4
How it was run: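 LC-UV gave % loss after 14 or 28 days of storage at 5 °C or 40 °C. Samples were diluted supernatants from compound incubated 1 h at room temperature at 10 mg/mL target, in 100 mM acetate pH 4.5 or 100 mM phosphate pH 7.4.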

[3] = In vitro plasma stability, rat plasma; format: in vitro ADME; design: remaining at 2 h: dose or concentration left out as unconfirmed; details: male, Sprague Dawley, plasma; Rat PLM, 37° C.
[4] = In vitro plasma stability, human plasma; format: in vitro ADME; design: dose or concentration left out as unconfirmed; details: Human PLM, 37° C.
human CRF2a receptor = molecular target: T1, human CRF2a receptor (Homo sapiens, UniProt Q13324); test: Activity at human CRF2a receptor, cAMP functional assay in TeloHEAC cells; format: cell-based; details: TeloHEAC cells stably expressing human CRF2a receptor, relative to urocortin 2 (100 nM = 100%)
T1 construct: expressed in transfected cells; host or cells: TeloHEAC cells
T1 sequence (Q13324 1-411): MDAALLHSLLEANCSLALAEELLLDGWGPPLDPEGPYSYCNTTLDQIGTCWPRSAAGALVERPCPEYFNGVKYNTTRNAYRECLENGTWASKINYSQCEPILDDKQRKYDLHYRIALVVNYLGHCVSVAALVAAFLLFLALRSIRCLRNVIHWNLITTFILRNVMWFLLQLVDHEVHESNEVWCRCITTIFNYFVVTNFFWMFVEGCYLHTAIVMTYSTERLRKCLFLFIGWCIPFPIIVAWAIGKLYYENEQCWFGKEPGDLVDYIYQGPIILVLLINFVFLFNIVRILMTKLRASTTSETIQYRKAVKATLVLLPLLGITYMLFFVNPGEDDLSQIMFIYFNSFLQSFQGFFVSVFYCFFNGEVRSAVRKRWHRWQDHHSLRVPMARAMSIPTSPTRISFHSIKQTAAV
How it was run: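 TeloHEAC cells stably expressing human CRF2a (10000 cells/well) were treated with 16-point 1:2 compound dilutions in HBSS/20 mM HEPES with IBMX for 30 min at 37° C. cAMP was read by HTRF (665/620 nm ratio). EC50 was the concentration giving 50% activation, with 100 nM urocortin 2 set as 100%.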

CFR1R receptor = molecular target: T2, CFR1R receptor (Homo sapiens, UniProt P34998); test: Activity at anti-target CFR1R receptor, cAMP assay in CRF1R-overexpression CHO-K1 cells; format: cell-based; details: 100% = Sauvagine at 100 nM; for EC50: cAMP
T2 construct: host or cells: CHO-K1 (clone 2)
T2 sequence (P34998 24-415): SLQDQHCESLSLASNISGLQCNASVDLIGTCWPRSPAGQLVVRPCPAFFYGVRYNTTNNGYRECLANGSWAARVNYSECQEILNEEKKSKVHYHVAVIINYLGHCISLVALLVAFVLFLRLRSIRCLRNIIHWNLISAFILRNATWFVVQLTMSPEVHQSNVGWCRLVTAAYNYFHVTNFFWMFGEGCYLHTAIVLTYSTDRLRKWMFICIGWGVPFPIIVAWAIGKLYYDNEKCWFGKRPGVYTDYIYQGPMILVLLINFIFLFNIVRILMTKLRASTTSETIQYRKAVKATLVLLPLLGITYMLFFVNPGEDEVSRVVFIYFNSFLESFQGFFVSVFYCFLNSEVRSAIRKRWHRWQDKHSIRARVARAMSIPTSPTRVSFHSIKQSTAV
How it was run: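 The method mirrors that used with TeloHAEC cells. Here, thawed clone 2 cells seeded at 4000 cells/well are tested, and 100 nM Sauvagine sets the top of the activation scale.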

Sprague Dawley rats = test: Effect on systolic blood pressure, telemetry in Sprague Dawley rats; format: in vivo, rat; details: 0.1 mg/kg SC; for Systolic blood pressure (Mean) % change from baseline, 8 h / Systolic blood pressure (Mean) % change from baseline, 12 h / Systolic blood pressure (Mean) % change from baseline, 24 h: n=2; for Duration of action: last time point with an effect on BP still observed
How it was run: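 Values are % change from a 1 h pre-dose baseline in systolic pressure, tracked by telemetry for up to 48 hours after a single 0.1 mg/kg subcutaneous dose. Rats (Sprague Dawley, n=2 per peptide) carried aortic catheters and recovered at least 10 days post-surgery; duration of action marks the last time point still showing an effect.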

[5] = In vitro subcutaneous tissue supernatant (SCts) stability and metabolite identification, rat; format: in vitro ADME; design: remaining at 2 h: dose or concentration left out as unconfirmed; details: male, Sprague Dawley; rat subcutaneous tissue supernatant (SCts), 37° C, 2 h
[6] = Pharmacokinetics in male Sprague Dawley rats after subcutaneous administration; format: in vivo; details: plasma, rat
rat CRF2 a = molecular target: T3, rat CRF2 a (Rattus norvegicus, UniProt P47866); test: Activity at rat CRF2 a, cAMP assay in A7R5 rat aortic smooth muscle cells; format: cell-based; details: 0% HSA, 100% = Sauvagine at 100 nM
T3 construct: host or cells: A7R5 rat aortic smooth muscle cells
Method: The A7R5 rat aortic smooth muscle cell line used in this study was purchased from ATCC.
Cells were grown in a 10 cm dish at 37° C./5% CO2 in medium (DMEM/10% FBS) to near confluence. At that stage, cells were harvested, resuspended to 10 million/mL in culture medium and with 5% DMSO. 1 mL vial aliquots were slowly frozen to −80° C. in isopropanol and then transferred in liquid nitrogen for storage.
These vials were used to run the experiment following the procedure reported in the previous paragraph, except for the compound used in the control well to define the 100% activation (Sauvagine at 100 nM) and the cell density (final cell density: 5000 cells/well).

[7] = Pharmacokinetics in male Sprague Dawley rats after subcutaneous administration; format: in vivo; details: plasma, rat, SC, 0.1 mg/kg
Human PLM = details: 37° C., up to 2 hours
Rat PLM = details: male Sprague Dawley rats, 37° C., up to 2 hours

T3 sequence (P47866 27-431 isoform P47866-2 limits assumed): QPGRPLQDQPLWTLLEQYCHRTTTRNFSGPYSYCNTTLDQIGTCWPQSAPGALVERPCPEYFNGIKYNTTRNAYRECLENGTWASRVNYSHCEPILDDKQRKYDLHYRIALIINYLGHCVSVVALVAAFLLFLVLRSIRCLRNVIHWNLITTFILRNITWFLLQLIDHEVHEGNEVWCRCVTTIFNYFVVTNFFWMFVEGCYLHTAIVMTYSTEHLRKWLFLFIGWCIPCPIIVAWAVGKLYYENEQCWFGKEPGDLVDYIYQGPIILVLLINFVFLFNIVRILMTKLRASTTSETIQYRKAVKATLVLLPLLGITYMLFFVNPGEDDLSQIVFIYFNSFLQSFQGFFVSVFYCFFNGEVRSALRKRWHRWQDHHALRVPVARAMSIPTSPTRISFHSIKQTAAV

| Molecule | remaining at 2 h [1] | Buffer stability pH 7.4 % purity loss [2] | remaining at 2 h [3] | remaining at 2 h [4] | EC50 (human CRF2a receptor) | Emax (% I) (CFR1R receptor) | EC50 (CFR1R receptor) | Systolic blood pressure (Mean) % change from baseline, 8 h (Sprague Dawley rats) | Systolic blood pressure (Mean) % change from baseline, 12 h (Sprague Dawley rats) | Systolic blood pressure (Mean) % change from baseline, 24 h (Sprague Dawley rats) | Duration of action (Sprague Dawley rats) | also measured |
| --- | --- | --- | --- | --- | --- | --- | --- | --- | --- | --- | --- | --- |
| CC[C@H](NC(=O)[C@H](CC(N)=O)NC(=O)[C@@H](NC(=O)[C@H](CCC(=O)O)NC(=O)[C@H](C)NC(=O)[C@H](CCC(N)=O)NC(=O)[C@H](CCC(=O)O)NC(=O)[C@H](CCCNC(=N)N)NC(=O)[C@H](CCC(N)=O)NC(=O)[C@H](CCCCN)NC(=O)[C@H](CCCCN)NC(=O)[C@H](CCC(N)=O)NC(=O)[C@H](CCCCN)NC(=O)[C@H](CCC(=O)O)NC(=O)[C@H](CCC(N)=O)NC(=O)[C@H](CCC(=O)O)NC(=O)[C@H](CC(C)C)NC(=O)[C@H](CC(C)C)NC(=O)[C@@H](NC(=O)[C@H](CCCCN)NC(=O)[C@H](CCCCNC(=O)CC[C@H](NC(=O)CCCCCCCCCCCCCCC(=O)O)C(=O)O)NC(=O)[C@H](CC(C)C)NC(=O)[C@H](CCCCN)NC(=O)[C@@H](NC(=O)[C@@H]1CCCN1C(=O)[C@H](NC(=O)[C@H](CC(=O)O)NC(=O)[C@H](CC(C)C)NC(=O)[C@H](CO)NC(=O)[C@H](CC(C)C)NC(=O)[C@@H](NC(=O)[C@@H](NC(C)=O)[C@@H](C)CC)C(C)C)C(C)C)[C@@H](C)CC)[C@@H](C)CC)[C@@H](C)O)C(=O)N[C@@H](CCC(N)=O)C(=O)N[C@H](C(=O)N[C@@H](CC(C)C)C(=O)N[C@@H](C)C(=O)N[C@@H](CCC(N)=O)C(=O)N[C@H](C(N)=O)C(C)C)[C@@H](C)CC [compound 51] (Ac-IVLSLD[dV]PIKLK([γGlu-C16 diacid])KILLEQEKQKKQREQAETN[Abu]QILAQV-NH2) | 97% | 0/0 ^ % | 73% | 102% | 0.12 nM | 9 % I | > 250 nM | −27% | −19% | −1% | 24 h | Buffer stability pH 4.5 % purity loss ([2]; 100 mM acetate buffer pH 4.5): 0/0 ^ % |
| CCCCC(=O)N[C@H](C(=O)N[C@@H](CC(C)C)C(=O)N[C@@H](CO)C(=O)N[C@@H](CC(C)C)C(=O)N[C@@H](CC(=O)O)C(=O)N[C@@H](C(=O)N1CCC[C@H]1C(=O)N[C@H](C(=O)N[C@@H](CCCCN)C(=O)N[C@@H](CC(C)C)C(=O)N[C@@H](CCCCNC(=O)CC[C@H](NC(=O)CCCCCCCCCCCCCCC(=O)O)C(=O)O)C(=O)N[C@@H](CCCCN)C(=O)N[C@H](C(=O)N[C@@H](CC(C)C)C(=O)N[C@@H](CC(C)C)C(=O)N[C@@H](CCC(=O)O)C(=O)N[C@@H](CCC(N)=O)C(=O)N[C@@H](CCC(=O)O)C(=O)N[C@@H](CCCCN)C(=O)N[C@@H](CCC(N)=O)C(=O)N[C@@H](CCCCN)C(=O)N[C@@H](CCCCN)C(=O)N[C@@H](CCC(N)=O)C(=O)N[C@@H](CCCNC(=N)N)C(=O)N[C@@H](CCC(=O)O)C(=O)N[C@@H](CCC(N)=O)C(=O)N[C@@H](C)C(=O)N[C@@H](CCC(=O)O)C(=O)N[C@H](C(=O)N[C@@H](CC(N)=O)C(=O)NC(C)(C)C(=O)N[C@@H](CCC(N)=O)C(=O)N[C@H](C(=O)N[C@@H](CC(C)C)C(=O)N[C@@H](C)C(=O)N[C@@H](CCC(N)=O)C(=O)N[C@H](C(N)=O)C(C)C)[C@@H](C)CC)[C@@H](C)O)[C@@H](C)CC)[C@@H](C)CC)C(C)C)C(C)C [compound 80] (Pentanoyl-VLSLD[dV]PIKLK([γGlu-C16 diacid])KILLEQEKQKKQREQAETN[Aib]QILAQV-NH2) | 104% | 0/nd ^ % | 98% | 101% | 0.35 nM | 10 % I | > 250 nM |  |  |  |  |  |
| CC[C@H](C)[C@H](NC)C(=O)N[C@H](C(=O)N[C@@H](CC(C)C)C(=O)N[C@@H](CO)C(=O)N[C@@H](CC(C)C)C(=O)N[C@@H](CC(=O)O)C(=O)N[C@@H](C(=O)N1CCC[C@H]1C(=O)N[C@H](C(=O)N[C@@H](CCCCN)C(=O)N[C@@H](CC(C)C)C(=O)N[C@@H](CCCCNC(=O)CC[C@H](NC(=O)CCCCCCCCCCCCCCCCC(=O)O)C(=O)O)C(=O)N[C@@H](CCCCN)C(=O)N[C@H](C(=O)N[C@@H](CC(C)C)C(=O)N[C@@H](CC(C)C)C(=O)N[C@@H](CCC(=O)O)C(=O)N[C@@H](CCC(N)=O)C(=O)N[C@@H](CCC(=O)O)C(=O)N[C@@H](CCCCN)C(=O)N[C@@H](CCC(N)=O)C(=O)N[C@@H](CCCCN)C(=O)NC(C)(C)C(=O)N[C@@H](CCC(N)=O)C(=O)N[C@@H](CCCNC(=N)N)C(=O)N[C@@H](CCC(=O)O)C(=O)N[C@@H](CCC(N)=O)C(=O)N[C@@H](C)C(=O)N[C@@H](CCC(=O)O)C(=O)N[C@H](C(=O)N[C@@H](CC(N)=O)C(=O)NC(C)(C)C(=O)N[C@@H](CCC(N)=O)C(=O)N[C@H](C(=O)N[C@@H](CC(C)C)C(=O)N[C@@H](C)C(=O)N[C@@H](CCC(N)=O)C(=O)N[C@H](C(N)=O)C(C)C)[C@@H](C)CC)[C@@H](C)O)[C@@H](C)CC)[C@@H](C)CC)C(C)C)C(C)C [compound 145] (H-[NMeI]VLSLD[dV]PIKLK([γGlu-C18 diacid])KILLEQEKQK[Aib]QREQAETN[Aib]QILAQV-NH2) |  | 0.0/Not Tested % |  |  |  |  |  | −23% | −21% | −14% | >24 h | remaining at 2 h [5]: 76%; AUC(0-t) ([6]; IV, 0.05 mg/kg): 4100 ng·h/mL; half-life ([6]; IV, 0.05 mg/kg): 348 min; Tmax ([6]; SC, 0.1 mg/kg): 8 h; EC50 (rat CRF2 a): 0.05 nM; AUC(0-t) [7]: 4200 ng·h/mL; Cmax [7]: 295 ng/mL |
| Ac-IVLSLDvPIKLK*KILLEQEKQKKQREQAETN4-PipQILAQV-NH2 |  |  |  |  |  |  |  |  |  |  |  | not cleaved (Human PLM): 104% remaining at 2 hours; not cleaved (Rat PLM): 96% remaining at 2 hours |
